Earlier results as cited in patent US9044505B2, “Multimeric biotinidase resistant multimodality probes” (priority 2012, dated 2015).

System: (strept)avidin
Conditions: (strept)avidin-biotin interaction

In the case of `O=C(O)CCCC[C@@H]1SC[C@@H]2NC(=O)N[C@@H]21` [biotin], the Ka is given as 10^15 M.
